In US20110212080A1, “UREA DERIVATIVES AS ANTIBACTERIAL AGENTS” (priority 2008, published 2011):

Target: T1, LpxC enzyme (Escherichia coli, UniProt P0A725)
T1 sequence (P0A725 1-305): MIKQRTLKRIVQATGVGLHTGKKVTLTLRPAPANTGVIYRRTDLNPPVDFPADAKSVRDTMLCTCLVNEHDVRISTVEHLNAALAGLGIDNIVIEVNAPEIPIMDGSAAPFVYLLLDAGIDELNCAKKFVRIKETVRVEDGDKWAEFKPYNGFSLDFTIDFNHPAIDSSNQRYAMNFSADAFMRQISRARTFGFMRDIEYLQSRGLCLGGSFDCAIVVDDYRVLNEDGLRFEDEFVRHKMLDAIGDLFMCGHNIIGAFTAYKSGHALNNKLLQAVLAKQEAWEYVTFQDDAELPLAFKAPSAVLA
Experiment: standard LpxC assay (RapidFire high-throughput mass spectrometry)
Type: biochemical
Conditions: 1.0 μM UDP-3-O-(R-3-hydroxymyristoyl)-N-acetylglucosamine, 60 minutes at room temperature, 2% DMSO; read-out: E.coli IC50
Experimental: The standard LpxC assay consists of […] LpxC enzyme, 1.0 μM UDP-3-O-(R-3-hydroxymyristoyl)-N-acetylglucosamine, and test compound, in assay buffer and 2% DMSO. Assay buffer is comprised of 25 mM HEPES, pH 7.3, 150 mM NaCl, 2.0 mM DTT, and 0.01% BSA. The enzyme reaction is carried out in a 96-well assay plate, in a final volume of 102 μL. Solutions of rest compounds are prepared in 100% DMSO. Reaction additions, in order, are (1) 2.0 μL compound solution, (2) 80 μL of assay buffer, (3) 10 μL of 10 μM UDP-3-O-(R-3-hydroxymyristoyl)-N-acetylgucosamine (in assay buffer) and, (4) 10 μL of LpxC enzyme (20 nM in assay buffer) to initiate the reaction. In positive control reactions, addition (1) has 2.0 μL of 100% DMSO (without compound); these reactions are used as the total signal (TSB) value. Reactions are incubated at room temperature for 60 minutes when 10 μL of 1 N HCl is added to stop the reaction. The plate is shaken by hand for 10 seconds to ensure complete quenching. […]
The concentrations of substrate and product in the reaction mixtures are determined with BioTrove's proprietary RapidFire™ high-throughput mass spectrometry (HTMS). […] The mass spectrometry peak areas of the substrate and product are measured to determine the concentration of these analytes. […] Percent inhibition, % I, in test samples is determined from the following equation: […]

| Compound | IC50 [µM] |
| --- | --- |
| C[C@@H](O)[C@@H](NC(=O)N1CCCC(c2ccc(C#Cc3ccccc3)cc2)C1)C(=O)NO (some centres unmarked) [Compound 41] | 0.05 to 0.5 |
| C[C@@H](NC(=O)N[C@@H](C(=O)NO)[C@@H](C)O)c1ccc(-n2cccn2)cc1 [Compound 46] | 5 to 10 |
